Reference: patent US10888574B2, “Method for suppressing obesity, method for treating obesity, and method for promoting gene expression” (Kinjirushi Co., Ltd., priority 2017, dated 2021)

Experiments:
UCP1 gene = test: Quantitative determination of expression level of UCP1 gene in brown adipocytes (real-time PCR, GAPDH internal standard); format: cell-based; conditions: rat primary brown adipocytes; for Relative value of UCP1 gene expression, Average: control = 1.00, n=3; for UCP1 gene expression as compared with the control (in words): FIG. 1
Procedure: (§1) In each example, as described below, brown adipocytes were cultured in a test medium to which each of various test substances has been added, and then quantitative determination of expression level of UCP1 gene and quantitative determination of lipid droplets by Oil Red 0 staining were performed.
(§2) Noradrenaline, isovitexin, and isosaponarin were each added to the maintenance medium. The final concentration in each media was set to 1 μmol/L for noradrenaline; 1 mmol/L, 100 μmol/L, and 10 μmol/L for isovitexin; and 1 mmol/L, 100 μmol/L, and 10 μmol/L for isosaponarin.
(§3) The brown adipocytes used in the test were those contained in the rat-derived primary brown adipocyte culture kit (manufactured by Cosmo Bio Co., Ltd., code number: BAT02). Using the above-described growth medium, the brown adipocytes were inoculated in the respective wells of a 24-well plate at a density of 3×10^4 cells/well. The brown adipocytes were cultured at 37° C. with 5% CO2 for 3 days in a CO2 incubator (multi-gas incubator, manufactured by Panasonic Healthcare Holdings Co., Ltd., product number: MCO-19MUVH). Next, the medium in each well was replaced with the differentiation-inducing medium, and culture was performed for 2 days in the CO2 incubator (5% CO2, 37° C.). Then, the medium in each well was replaced with the above-described maintenance medium, and culture was performed for 2 days in the CO2 incubator (5% CO2, 37° C.). Further, the medium in each well was replaced with the above-described maintenance medium again, and the brown adipocytes were cultured for 1 day in the CO2 incubator (5% CO2, 37° C.). Subsequently, analysis of gene expression and evaluation by Oil Red 0 staining were performed as below.
RNAs were recovered from the brown adipocytes using 0.2 mL per well of TRI Reagent (manufactured by Molecular Research Center, Inc., catalog number: TR118). Using 500 ng of each sample RNA, cDNA synthesis was performed using a cDNA synthesis kit (product name: SuperScript [registered trademark] VILO™ cDNA Synthesis Kit, manufactured by Thermo Fisher Scientific Inc., catalog number: 11754050). Real-time PCR was performed using a real-time PCR kit (product name: LightCycler [registered trademark] Taqman [registered trademark] Master, manufactured by Roche Applied Science, catalog number: 4735536) and a real-time PCR device (product name: LigthCycler [registered trademark] 480 System II, manufactured by Roche Diagnostics). Analysis of UCP1 gene expression was performed using GAPDH as an internal standard.
Primers and probes used in the test were as follows: • UCP1 primer, • forward primer: […] (SEQ ID No. 1, synthesized by Sigma-Aldrich Co. LLC), • reverse primer: tggccttcaccttggatct (SEQ ID No. 2, synthesized by Sigma-Aldrich Co. LLC), • probe: Universal ProbeLibrary probe #130 (manufactured by Roche Life Science Co. Ltd.), • GAPDH primer, • forward primer: […] (SEQ ID No. 3, synthesized by Sigma-Aldrich Co. LLC), • reverse primer: […] (SEQ ID No. 4, synthesized by Sigma-Aldrich Co. LLC), and
probe: Universal ProbeLibrary probe #80 (manufactured by Roche Life Science Co. Ltd.).
The number of experiments performed was three. […] The significant difference is indicated as “<0.05” when the significance level of the t-test was 5%, and as “<0.01” when the significance level was 1%.

brown adipocytes = test: Quantitative determination of lipid droplets by Oil Red O staining in brown adipocytes; format: cell-based, rat; conditions: for Quantity of lipid droplets produced, Average: relative absorbance at 540 nm, control = 100, n=3; for Quantity of lipid droplets produced compared with medium without the substance (in words): rat primary brown adipocytes, FIG. 2
Procedure: as §1, §2, §3
Lipid droplets in the cell cultured as described in the above item (2) were quantitatively determined through the steps below using Lipid Assay Kit (manufactured by Cosmo Bio Co., Ltd., code number: AK09F).
Step 2-1. Fixative solution was prepared by mixing the following ingredients together: • 37% formaldehyde solution (formalin stock solution): 100 mL, • purified water: 900 mL, • sodium dihydrogen phosphate monohydrate (NaH2PO4·H2O): 4 g, and • disodium hydrogen phosphate, anhydrous (Na2HPO4): 6.5 g.
Step 2-2. The culture solution was removed from the well plate subjected to the culture operation in the above “(2) Culture of brown adipocytes”. Then, each well was washed once with 500 μL per well of PBS.
Step 2-3. 500 μL per well of the fixative solution prepared in Step 2-1 was added to each well, and the well plate was left at rest overnight at room temperature.
Step 2-4. After the immobilization, washing of each well with 500 μL per well of purified water was performed.
Step 2-5. Undiluted Oil Red 0 solution in the kit and purified water were mixed together at a ratio of 6:4 (volume ratio) to obtain a mixed solution, and the mixed solution was left at rest at room temperature for 10 to 15 minutes. Then, the mixed solution was filtered through a membrane filter having pores with a pore diameter of 0.5 to 1.0 μm. The filtrate was used as Oil Red 0 solution.
Step 2-6. 500 μL of the above-described Oil Red 0 solution was dispensed into each well, and the well plate was left at rest at room temperature for 15 minutes.
Step 2-7. After that, the Oil Red 0 solution was removed from the well, and each well was washed with purified water three times or more. Such washing was performed thoroughly until the used purified water becomes clear.
Step 2-8. 500 μL of solvent for extraction in the kit was added into the dried well, and pigments were eluted. 0.1 mL of the eluate with the pigments eluted therein was dispensed into each well of a 96-well plate, and absorbance at a wavelength of 540 nm was measured with a micro-plate reader (Infinite [registered trademark] M200 PRO, manufactured by TECAN). […]

NC[C@H](O)c1ccc(O)c(O)c1 [Noradrenaline, reference compound]
Relative value of UCP1 gene expression, Average (UCP1 gene; final concentration 1 μmol/L): 1.38

O=c1cc(-c2ccc(O)cc2)oc2cc(O)c([C@@H]3O[C@H](CO)[C@@H](O)[C@H](O)[C@H]3O)c(O)c12 [Isovitexin]
Relative value of UCP1 gene expression, Average (UCP1 gene; final concentration 10 μmol/L): 1.30
Relative value of UCP1 gene expression, Average (UCP1 gene; final concentration 100 μmol/L): 1.30
Relative value of UCP1 gene expression, Average (UCP1 gene; final concentration 1 mmol/L): 1.45
UCP1 gene expression as compared with the control (in words) (UCP1 gene): significant increase in UCP1 gene expression
Quantity of lipid droplets produced, Average (brown adipocytes; concentration 10 μmol/L): 84.8%
Quantity of lipid droplets produced, Average (brown adipocytes; concentration 100 μmol/L): 83.3%
Quantity of lipid droplets produced, Average (brown adipocytes; concentration 1 mmol/L): 77.8%
Quantity of lipid droplets produced compared with medium without the substance (in words) (brown adipocytes): quantity of lipid droplets produced was smaller

O=c1cc(-c2ccc(OC3OC(CO)C(O)C(O)C3O)cc2)oc2cc(O)c(C3OC(CO)C(O)C(O)C3O)c(O)c12 (centres unmarked) [Isosaponarin]
Relative value of UCP1 gene expression, Average (UCP1 gene; final concentration 10 μmol/L): 1.17
Relative value of UCP1 gene expression, Average (UCP1 gene; final concentration 100 μmol/L): 1.30
Relative value of UCP1 gene expression, Average (UCP1 gene; final concentration 1 mmol/L): 1.18
UCP1 gene expression as compared with the control (in words) (UCP1 gene): significant increase in UCP1 gene expression
Quantity of lipid droplets produced, Average (brown adipocytes; concentration 10 μmol/L): 104.0%
Quantity of lipid droplets produced, Average (brown adipocytes; concentration 100 μmol/L): 97.7%
Quantity of lipid droplets produced, Average (brown adipocytes; concentration 1 mmol/L): 98.9%
Quantity of lipid droplets produced compared with medium without the substance (in words) (brown adipocytes): quantity of lipid droplets produced was smaller
